Assay results reported in patent US20260284214A1, “EXATECAN DERIVATIVE AND ANTIBODY-DRUG CONJUGATE THEREOF” (priority 2023, published 2026).
Where two headings read alike, the source gives them in different places. Marks after values point to notes of the source that are not given here.

Experiments:
[1] = test system: MDA-MB-468 (human breast cancer cells); experiment: Cell-proliferation inhibitory activity (CellTiter-Glo, 3 days); assay type: cell-based; conditions: MDA-MB-468 cells
Excerpt: (§1) The experiment was intended to detect in-vitro inhibitory activities of the compounds of the present disclosure on NCI-N87 (human gastric cancer cells), KPL-4 (human breast cancer cells) or MDA-MB-468 (human breast cancer cells).
(§2) Human gastric cancer cells NCI-N87 (ATCC, article number: CRL-5822), human breast cancer cells MDA-MB-468 (Cell Bank of the Committee on Type Culture Collection, Chinese Academy of Sciences, article number: TCHu136) and human breast cancer cells KPL-4 (Nanjing Cobioer Biosciences Co., Ltd., article number: CBP60379) were washed with PBS, then the cells were digested with 0.25% Trypsin-EDTA trypsin for about 3-10 minutes, and the digestion was terminated with a complete cell culture medium. The cells were centrifuged at 1000 rpm for 5 minutes, the supernatant was discarded, and the cells were resuspended with a complete cell culture medium, counted by a cell counter, and adjusted to a required density. Each well was added with 90.0 μL of the cell suspension according to 3000 cells per well, and the cell plate was placed into a 5% CO2 cell incubator at 37° C. to incubate the cells overnight.
(§3) In the experiment, a DMSO control group, a positive control group and a test sample group were provided respectively, and the compound Dxd was used as a positive control compound. The cell plate was taken out of the incubator to observe a cell adhesion state, and after cell adhesion, each well was added with 10.00 μL of the sample (starting from a final concentration 10 μM, diluted 5 times, 9 concentrations), shaken gently, and then placed into an incubator to incubate the cells.
(§4) After incubation for 3 days, each well was added with a CellTiter-Glo™ (Promega, article number: G7572/G7571) working solution according to 100.0 μL/well and oscillated by a constant-temperature oscillator to lyse the cells, and 10 minutes later, the plate was read on a microplate reader.
(§5) A calculation formula of a cell-proliferation inhibition rate was: cell-proliferation inhibition rate=(1−RLUtest sample well/RLUDMSO control well)×100%.
(§6) Data analysis: a graph was made by GraphPad Prism 8.0 software with a Log value of a sample concentration as an abscissa and Inhibition % as an ordinate, and data were subjected to Nonlinear regression (curve fit) analysis to obtain an IC50 value of each test sample.

[2] = test system: KPL-4 (human breast cancer cells); experiment: as above; assay type: cell-based; conditions: KPL-4 cells
Excerpt: as §1, §2, §3, §4, §5, §6

[3] = test system: NCI-N87 (human gastric cancer cells); experiment: as above; assay type: cell-based
Excerpt: as §1, §2, §3, §4, §5, §6

SD rats = experiment: Toxicity comparison after repeated administration to SD rats for 7 days (hematology); assay type: in vivo; conditions: 0.1 mg/kg iv for 7 consecutive days, end of study
Procedure: SD rats were taken as test animals to study toxic reactions after intravenous injection of the compounds of the present disclosure to male and female SD rats at a dosage of 0.1 mg/kg for 7 consecutive days.
• Species: male and female SD rats (5 female rats and 5 male rats/group) • Grade: SPF grade • Weight: ♂ 252.0-287.4 g and ♀ 185.7-224.3 g • Age: 8-12 weeks • Source: Zhejiang Vital River Laboratory Animal Technology Co., Ltd.
Male and female SD rats were injected with the test sample solution, and Compound 2 of the example and the Dxd were given in a dosage of 0.1 mg/kg and a dosage volume of 10 mL/kg.
Preparation of test sample solution: the test sample was dissolved with a solvent (5% DMSO+95% Solutol HS-15 in water).
About 0.2 mL of blood was collected from the jugular sinus of the animals into an anticoagulant tube containing an anticoagulant (EDTA-K2) on D3 after administration, and all to-be-dissected animals were fasted for about 12 hours on the eve of D8 before dissection. Dying animals were euthanized, about 2 mL of blood was collected from abdominal aorta into an anticoagulant tube containing an anticoagulant (EDTA-K2) at the time of dissection, and hematological indexes were detected by a Sysmex XN-1000 hemocytometer. Specific detection indexes were as follows.

FaDu cells = experiment: Cell inhibitory activity experiment of cytotoxic drug (CellTiter-Glo, 72 hours); assay type: cell-based, human
Procedure: (§7) Human pancreatic adenocarcinoma cells BxPC-3 (ATCC, article number: CRL-1687) and human pharyngeal squamous cell carcinoma cells FaDu (ATCC, article number: HTB-43) were washed with PBS, then the cells were digested with 0.25% Trypsin-EDTA trypsin for about 3 minutes, and the digestion was terminated with a complete cell culture medium. The cells were centrifuged at 1000 rpm for 5 minutes, the supernatant was discarded, and the cells were resuspended with a complete cell culture medium, counted by a cell counter, and adjusted to a required density. Each well was added with 50 μL of the cell suspension according to 3000 cells per well, and the cell plate was placed into a 5% CO2 cell incubator at 37° C. to incubate the cells for 12-16 hours.
(§8) The cell plate was taken out of the incubator to observe a cell adhesion state, and after cell adhesion, each well was added with 50 μL of the sample (starting from 10 μM, diluted 5 times, 9 concentrations), shaken gently, and then placed into an incubator to incubate the cells for 72 hours. Each well was added with a Cell Titer-GLO™ (Promega, article number: G7572) working solution according to 100 μL/well and shaken gently to lyse the cells, and the plate was read on a microplate reader.
(§9) Data analysis: a graph was made by GraphPad Prism 7.0 software with a Log value of a sample concentration as an abscissa and Cytotoxicity % as an ordinate, and data were subjected to Nonlinear regression (curve fit) analysis to obtain an IC50 value of each compound.

BxPC-3 cells = experiment: as above; assay type: cell-based, human
Procedure: as §7, §8, §9

CC[C@@]1(O)C(=O)OCc2c1cc1n(c2=O)Cc2c-1nc1cc(F)c(C)c3c1c2[C@@H](NC(=O)CO)CC3 [Dxd]
IC50 ([1]; Homo sapiens, 72 h): 2.71 nM
IC50 ([2]; Homo sapiens, KPL4, 72 h): 32.3 nM
IC50 ([3]; Homo sapiens, 72 h): 22.6 nM
#EOS, change compared with the control group (SD rats; ♀ SD rats): −84.44%**
#LUC, change compared with the control group (SD rats; ♀ SD rats): −66.9%**
#MONO, change compared with the control group (SD rats; ♀ SD rats): −71.3%**
#NEUT, change compared with the control group (SD rats; ♀ SD rats): −66.1%*
#RETIC, change compared with the control group (SD rats; ♀ SD rats): −96.9%**
HCT, change compared with the control group (SD rats; ♀ SD rats): −15.8%**
HGB, change compared with the control group (SD rats; ♀ SD rats): −12.7%**
MCHC, change compared with the control group (SD rats; ♀ SD rats): 3.6%**
RBC, change compared with the control group (SD rats; ♀ SD rats): −13.4%**
WBC, change compared with the control group (SD rats; ♀ SD rats): −47.6%*
#BASO, change compared with the control group (SD rats; ♂ SD rats): −82.1%*
#EOS, change compared with the control group (SD rats; ♂ SD rats): −70.2%*
#MONO, change compared with the control group (SD rats; ♂ SD rats): −77.2%**
#NEUT, change compared with the control group (SD rats; ♂ SD rats): −66.9%**
#RETIC, change compared with the control group (SD rats; ♂ SD rats): −95.5%*
HCT, change compared with the control group (SD rats; ♂ SD rats): −15.7%**
HGB, change compared with the control group (SD rats; ♂ SD rats): −12.8%**
MCHC, change compared with the control group (SD rats; ♂ SD rats): 3.2%**
RBC, change compared with the control group (SD rats; ♂ SD rats): −15.3%**

C#CCN(CCO)C(=O)N[C@H]1CCc2c(C)c(F)cc3nc4c(c1c23)Cn1c-4cc2c(c1=O)COC(=O)[C@]2(O)CC [Example 2]
IC50 [1]: 2.41 nM
IC50 [2]: 29.6 nM
IC50 [3]: 11 nM
IC50 (FaDu cells): 1.49 nM
IC50 (BxPC-3 cells): 0.96 nM
#MONO, change compared with the control group (SD rats; ♀ SD rats): −54.1%**
#RETIC, change compared with the control group (SD rats; ♀ SD rats): −86.4%**
HCT, change compared with the control group (SD rats; ♀ SD rats): −12.0%**
HGB, change compared with the control group (SD rats; ♀ SD rats): −10.7%**
RBC, change compared with the control group (SD rats; ♀ SD rats): −10.9%**
#EOS, change compared with the control group (SD rats; ♂ SD rats): −71.4%**
#MONO, change compared with the control group (SD rats; ♂ SD rats): −68.3%**
#NEUT, change compared with the control group (SD rats; ♂ SD rats): −72.2%**
#RETIC, change compared with the control group (SD rats; ♂ SD rats): −87.3%**

C=CCN(CCO)C(=O)N[C@H]1CCc2c(C)c(F)cc3nc4c(c1c23)Cn1c-4cc2c(c1=O)COC(=O)[C@]2(O)CC [Example 3, 1-allyl-3-((1S,9S)-9-ethyl-5-fluoro-9-hydroxy-4-methyl-10,13-dioxo-2,3,9,10,13,15-hexahydro-1H,12H-benzo[de]pyrano[3′,4′:6,7]indolizino[1,2-b]quinolin-1-yl)-1-(2-hydroxyethyl)urea]
IC50 ([1]; Homo sapiens, 72 h): 0.99 nM
IC50 ([2]; Homo sapiens, KPL4, 72 h): 8.82 nM
IC50 ([3]; Homo sapiens, 72 h): 6.39 nM
IC50 (FaDu cells; Homo sapiens): 1.09 nM
IC50 (BxPC-3 cells; Homo sapiens): 0.76 nM
